Experiments:
Coagulation factor X [1] = biological target: T1, Coagulation factor X (Homo sapiens, UniProt P00742); assay: Inhibition of factor 10a (unknown origin)
Plasma = assay: Anticoagulant activity in plasma assessed as concentration required to double the activated partial thromboplastin time; assay type: ADME, cell-free
Coagulation factor X [2] = biological target: T1, Coagulation factor X; assay: Binding affinity to factor 10a (unknown origin) assessed as association rate constant by SPR assay
Coagulation factor X [3] = biological target: T1, Coagulation factor X; assay: Binding affinity to factor 10a (unknown origin) assessed as dissociation rate constant by SPR assay
Coagulation factor X [4] = biological target: T1, Coagulation factor X; assay: Binding affinity to factor 10a (unknown origin) by SPR assay

T1 sequence (P00742 41-179 limits assumed): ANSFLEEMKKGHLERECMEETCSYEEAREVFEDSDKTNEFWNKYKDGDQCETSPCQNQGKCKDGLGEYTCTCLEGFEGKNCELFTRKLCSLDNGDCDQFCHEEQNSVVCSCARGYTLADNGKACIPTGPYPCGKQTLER
T1 sequence (P00742 235-488 limits assumed): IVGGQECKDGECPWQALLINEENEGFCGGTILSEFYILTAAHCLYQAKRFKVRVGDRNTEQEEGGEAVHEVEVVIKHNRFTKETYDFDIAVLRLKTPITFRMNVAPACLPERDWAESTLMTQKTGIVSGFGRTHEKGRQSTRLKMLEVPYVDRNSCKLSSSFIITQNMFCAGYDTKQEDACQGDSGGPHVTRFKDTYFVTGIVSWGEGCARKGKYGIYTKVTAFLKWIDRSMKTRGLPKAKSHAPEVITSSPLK

Structure (SMILES) | IC50 (Coagulation factor X [1]) [µM] | also measured
CCOC(=O)[C@]1(C)CCC[C@@]2(C)[C@@H]3CC[C@@]4(C)C[C@]3(CC[C@@H]21)C/C4=N\NC(=S)Nc1cccc(Cl)c1Cl | 7.73 | 
CCOC(=O)[C@]1(C)CCC[C@@]2(C)[C@@H]3CC[C@@]4(C)C[C@]3(CC[C@@H]21)C/C4=N\NC(=S)Nc1ccc([N+](=O)[O-])cc1 | 8.46 | 
CCOC(=O)[C@]1(C)CCC[C@@]2(C)[C@@H]3CC[C@@]4(C)C[C@]3(CC[C@@H]21)C[C@H]4O | 12.7 | 
CCOC(=O)[C@]1(C)CCC[C@@]2(C)[C@@H]3CC[C@@]4(C)C[C@]3(CC[C@@H]21)C[C@H]4OCc1cn(-c2ccc(Br)cc2)nn1 | 3.34 | 
CCOC(=O)[C@]1(C)CCC[C@@]2(C)[C@@H]3CC[C@@]4(C)C[C@]3(CC[C@@H]21)C/C4=N\NC(=S)Nc1ccc(C(F)(F)F)cc1 | 8.66 | 
CCOC(=O)[C@]1(C)CCC[C@@]2(C)[C@@H]3CC[C@@]4(C)C[C@]3(CC[C@@H]21)C[C@H]4OCc1cn(-c2ccc(F)cc2)nn1 | 8.74 | 
CCOC(=O)[C@]1(C)CCC[C@@]2(C)[C@@H]3CC[C@@]4(C)C[C@]3(CC[C@@H]21)CC4=O | 0.786 | 
CCOC(=O)[C@]1(C)CCC[C@@]2(C)[C@@H]3CC[C@@]4(C)C[C@]3(CC[C@@H]21)C/C4=N\NC(=S)Nc1cccc(OC)c1 | 18.4 | 
CCOC(=O)[C@]1(C)CCC[C@@]2(C)[C@@H]3CC[C@@]4(C)C[C@]3(CC[C@@H]21)C[C@H]4OCc1cn(-c2ccc(C(C)C)cc2)nn1 | 20.3 | 
CCOC(=O)[C@]1(C)CCC[C@@]2(C)[C@@H]3CC[C@@]4(C)C[C@]3(CC[C@@H]21)C[C@H]4OCc1cn(-c2ccc(Cl)cc2)nn1 | 27.3 | 
CCOC(=O)[C@]1(C)CCC[C@@]2(C)[C@@H]3CC[C@@]4(C)C[C@]3(CC[C@@H]21)C/C4=N\NC(=S)Nc1cccc(Cl)c1 | 0.196 | 2aPTT (Plasma): 17.12 µM; Ka (Coagulation factor X [2]): 1.84 ×10⁴ /M/s; Kd (Coagulation factor X [3]): 1.56 ×10⁻¹ /s; Kd (Coagulation factor X [4]): 8.44 µM
CCOC(=O)[C@]1(C)CCC[C@@]2(C)[C@@H]3CC[C@@]4(C)C[C@]3(CC[C@@H]21)C[C@H]4OCc1cn(-c2ccc(OC)cc2)nn1 | 19.3 | 
CCOC(=O)[C@]1(C)CCC[C@@]2(C)[C@@H]3CC[C@@]4(C)C[C@]3(CC[C@@H]21)C/C4=N\N | 2.82 | 
CCOC(=O)[C@]1(C)CCC[C@@]2(C)[C@@H]3CC[C@@]4(C)C[C@]3(CC[C@@H]21)C/C4=N\NC(=S)Nc1cccc(N(C)C)c1 | 29.6 | 
CCOC(=O)[C@]1(C)CCC[C@@]2(C)[C@@H]3CC[C@@]4(C)C[C@]3(CC[C@@H]21)C/C4=N\NC(=S)Nc1ccc(C(C)C)cc1 | 54.9 | 
CCOC(=O)[C@]1(C)CCC[C@@]2(C)[C@@H]3CC[C@@]4(C)C[C@]3(CC[C@@H]21)C/C4=N\NC(=S)Nc1ccccc1Cl | 0.209 | Ka (Coagulation factor X [2]): 1.88 ×10⁴ /M/s; Kd (Coagulation factor X [3]): 1.87 ×10⁻¹ /s; Kd (Coagulation factor X [4]): 9.98 µM
CCOC(=O)[C@]1(C)CCC[C@@]2(C)[C@@H]3CC[C@@]4(C)C[C@]3(CC[C@@H]21)C[C@H]4OCc1cn(-c2cccc3ccccc23)nn1 | 4.87 | 
CCOC(=O)[C@]1(C)CCC[C@@]2(C)[C@@H]3CC[C@@]4(C)C[C@]3(CC[C@@H]21)C[C@H]4OCc1cn(-c2ccccc2)nn1 | 10.4 | 
CCOC(=O)[C@]1(C)CCC[C@@]2(C)[C@@H]3CC[C@@]4(C)C[C@]3(CC[C@@H]21)C/C4=N\NC(=S)Nc1ccc(C#N)cc1 | 13.6 | 
CCOC(=O)[C@]1(C)CCC[C@@]2(C)[C@@H]3CC[C@@]4(C)C[C@]3(CC[C@@H]21)C[C@H]4OCc1cn(-c2ccc3c(c2)OCO3)nn1 | 7.57 | 

Structure (SMILES) | IC50 (Coagulation factor X [1]) [µM] | also measured
CCOC(=O)[C@]1(C)CCC[C@@]2(C)[C@@H]3CC[C@@]4(C)C[C@]3(CC[C@@H]21)C[C@H]4OCc1cn(-c2ccc(C)cc2)nn1 | 5.53 | 
CCOC(=O)[C@]1(C)CCC[C@@]2(C)[C@@H]3CC[C@@]4(C)C[C@]3(CC[C@@H]21)C/C4=N\NC(=S)Nc1ccc(C(C)(C)C)cc1 | 9.03 | 
CCOC(=O)[C@]1(C)CCC[C@@]2(C)[C@@H]3CC[C@@]4(C)C[C@]3(CC[C@@H]21)C[C@H]4OCc1cn(-c2ccccc2C)nn1 | 34.5 | 
C[C@@]12CC[C@@H]3[C@@](CC[C@H]4[C@@]3(C)CCC[C@@]4(C)C(=O)O)(CC1=O)C2 [ISOSTEVIOL] | 0.642 | 
CCOC(=O)[C@]1(C)CCC[C@@]2(C)[C@@H]3CC[C@@]4(C)C[C@]3(CC[C@@H]21)C/C4=N\NC(=S)Nc1ccc(OC)cc1 | 6.65 | 
CCOC(=O)[C@]1(C)CCC[C@@]2(C)[C@@H]3CC[C@@]4(C)C[C@]3(CC[C@@H]21)C/C4=N\NC(=S)Nc1ccc(Cl)cc1 | 0.153 | 2aPTT (Plasma): 9.31 µM; Ka (Coagulation factor X [2]): 1.93 ×10⁴ /M/s; Kd (Coagulation factor X [3]): 1.45 ×10⁻¹ /s; Kd (Coagulation factor X [4]): 7.52 µM
CCOC(=O)[C@]1(C)CCC[C@@]2(C)[C@@H]3CC[C@@]4(C)C[C@]3(CC[C@@H]21)C[C@H]4OCc1cn(Cc2ccccc2)nn1 | 29.4 | 
CCOC(=O)[C@]1(C)CCC[C@@]2(C)[C@@H]3CC[C@@]4(C)C[C@]3(CC[C@@H]21)C/C4=N\NC(=S)Nc1ccc(F)cc1 | 27.5 | 
CCOC(=O)[C@]1(C)CCC[C@@]2(C)[C@@H]3CC[C@@]4(C)C[C@]3(CC[C@@H]21)C/C4=N\NC(=S)Nc1ccccc1 | 13.4 | 
CCOC(=O)[C@]1(C)CCC[C@@]2(C)[C@@H]3CC[C@@]4(C)C[C@]3(CC[C@@H]21)C/C4=N\NC(=S)Nc1ccccc1C | 4.15 | 
CCOC(=O)[C@]1(C)CCC[C@@]2(C)[C@@H]3CC[C@@]4(C)C[C@]3(CC[C@@H]21)C/C4=N\NC(=S)Nc1ccc(OC)cc1OC | 33.6 | 
CCOC(=O)[C@]1(C)CCC[C@@]2(C)[C@@H]3CC[C@@]4(C)C[C@]3(CC[C@@H]21)C[C@H]4OCc1cn(-c2cccc(C)c2)nn1 | 41.7 | 
CCOC(=O)[C@]1(C)CCC[C@@]2(C)[C@@H]3CC[C@@]4(C)C[C@]3(CC[C@@H]21)C/C4=N\NC(=S)Nc1cccc2ccccc12 | 0.955 | 
CCOC(=O)[C@]1(C)CCC[C@@]2(C)[C@@H]3CC[C@@]4(C)C[C@]3(CC[C@@H]21)C/C4=N\NC(=S)Nc1cccc(C)c1 | 3.76 | 
CCOC(=O)[C@]1(C)CCC[C@@]2(C)[C@@H]3CC[C@@]4(C)C[C@]3(CC[C@@H]21)C/C4=N\NC(=S)Nc1ccc(Br)cc1 | 8.77 | 
CCOC(=O)[C@]1(C)CCC[C@@]2(C)[C@@H]3CC[C@@]4(C)C[C@]3(CC[C@@H]21)C/C4=N\NC(=S)Nc1ccc(C)cc1 | 57.7 | 
CCOC(=O)[C@]1(C)CCC[C@@]2(C)[C@@H]3CC[C@@]4(C)C[C@]3(CC[C@@H]21)C[C@H]4OCc1cn(-c2cccc(Cl)c2)nn1 | 17.7 | 
CCOC(=O)[C@]1(C)CCC[C@@]2(C)[C@@H]3CC[C@@]4(C)C[C@]3(CC[C@@H]21)C[C@H]4OCc1cn(-c2cc(C)cc(C)c2)nn1 | 6.33 | 
C#CCO[C@@H]1C[C@]23CC[C@H]4[C@@](C)(CCC[C@@]4(C)C(=O)OCC)[C@@H]2CC[C@@]1(C)C3 | 32.4 | 

— ChEMBL document CHEMBL4602655, “Synthesis and biological evaluation of Isosteviol derivatives as FXa inhibitors” (Bioorg Med Chem Lett, 2020)
